Reference: patent US9808434B2, “Compound for treating cancer and diabetes” (CITY OF HOPE, priority 2011, dated 2017)
“Also recorded” adds a separate entry of the source.

Columns and labels:
AMPK = AMPK activation in Hela cells, Western blot; format: cell-based; settings: 1 hour, 1, 3 or 5 μM
Protocol: Activation of AMPK was associated with the phosphorylation of the α-subunit on Thr-172 of as assessed using phospho-specific antibodies (FIGS. 10A-B). AMPK activation also leads to the increased phosphorylation of the target protein acetyl-CoA carboxylase (ACC) (FIG. 10B).
Cells of each cell lines (Hela, HL-60, and 3T3-L1) were treated for 1 hour with a test compound (COH-SR4, COH-SR9, COH-SR16, or COH-SR18) at a concentration of 1 μM, 3 μM, or 5 μM, or AICAR (5-aminoimidazole-4-carboxamideriboside, an AMPK agonist used as positive control) at a concentration of 500 μM, or none of the above (the untreated cells as negative control). Total cell lysates from the untreated cells and the cells treated with a test compound or AICAR were analyzed by Western blot assay using specific antibodies against phospho-AMPK, phospho-ACC, total AMPK and total ACC.

HL-60 cells [1] = experiment: Differentiation of HL-60 cells (Giemsa-Wright, NBT, CD11b/CD14); format: cell-based, human; settings: 48 hours; for surface expression of CD11b and CD14: 0.5-3 μM, flow cytometry; for morphologic changes (Giemsa-Wright stain), myeloid differentiation: 2-10 μM
Protocol: HL-60 cells were incubated with a test compound at various concentrations (2˜10 μM), DMSO, or without any test compound for 48 hours, and then examined for morphologic changes by Giemsa-Wright stain. The results were observed microscopically and shown in FIG. 13 at a magnification of ×400. […] Such results were similar to cells treated with DMSO or all-trans retinoic acid (ATRA), wherein DMSO or ATRA terminally differentiated HL-60 cells into myeloid cells (FIG. 13).
HL-60 cells (2.5×10^5) were treated with or without a test compound for 48 hours and then stained with NBT, wherein positively-stained cells appeared as purple black (FIG. 14A). NBT positive cells were counted and the overall percentage was calculated based on 200 total cells counted for each treatment. Three˜four independent experiments were carried out, and data are shown as mean±SE (FIG. 14B). This measurement of “oxidative burst” by the NBT assay is a well-known and extensively tested functional marker of HL-60 cell differentiation.
HL-60 cells (2.5×10^5) were incubated with a test compound (COH-SR4 or COH-SR9) at a concentration of 0.5 μM, 1 μM, 2 μM, or 3 μM, or without any COH-SR compound for 48 hours and then assessed for the surface expression of CD11b (FIG. 14C) and CD14 (FIG. 14D) by flow cytometry, respectively. Three-four independent experiments were carried out, and data are shown as mean±SE (FIGS. 14C and 14D).

HL-60 cells [2] = experiment: HL-60 cell cycle, PI flow cytometry; format: cell-based, human; settings: for cells in the S phase: 3 μM, control 47%; for viable cells arrested in G0/G1 phase: 48-hour treatment
Protocol: HL-60 cells (1×10^6) were incubated with a test compound (COH-SR4 or COH-SR9) at various concentrations (0.5˜3 μM) for 48 hours, washed and harvested. The cells were then fixed and stained with propodium iodide (P1) and the DNA content was analyzed by flow cytometry. Results of each figure were from 3-4 independent experiments. The cell number in each cell cycle phase was calculated and expressed as overall percentage (FIG. 15A). The percentage of cells in G0/G1 were measured from 0-48-hour treatment with test compounds (FIG. 15B), data expressed as mean±SE.

HL-60 cells [3] = experiment: HL-60 apoptosis, Annexin V-PI double staining; format: cell-based, human; settings: 3 μM, 48 hours
Protocol: HL-60 (5×10^5) cells were incubated with a test compound (COH-SR4 or COH-SR9), ATRA, or nothing (Control) for 48 hours, washed and harvested. The cells were then fixed and double stained with Annexin V-FITC and propodium iodide (PI) and analyzed by flow cytometry. Conjugation of Annexin V and PI staining was used to identify apoptosis cells (early stage and late stage), normal/viable cells and necrotic cells. The percentage distribution of normal/viable (R3, lower left quadrant), early apoptotic (R4, lower right quadrant), late apoptotic (R2, upper right quadrant) and necrotic cells (R1, upper left quadrant) was calculated using Summit software. The percentages of apoptotic cells after treatment with various doses of each compound are shown in FIGS. 16A-H. Both COH-SR4 and COH-SR9 treatment of HL-60 cells increased the number of early apoptotic and late apoptotic cells in a dose-dependent manner compared with untreated cells. At 3 μM, overall apoptotic cells were ˜60% and 40% for COH-SR4 and COHSR9, respectively.

HL-60 cells [4] = experiment: HL-60 apoptosis markers (DNA ladder, DiOC6(3), caspases, cytochrome c, PARP); format: cell-based, human; settings: for DiOC6(3) fluorescence (mitochondrial depolarization): 4 hours; for cytochrome c release and PARP: 24 hours; for cytochrome c release and PARP / caspase 3/7 and caspase 9 activity: 0.5-3 μM; for caspase 3/7 and caspase 9 activity: 48 hours; for DNA fragmentation (DNA ladder): agarose gel
Protocol: DNA was stained with ethidium bromide after electrophoresis on 1.5% agarose gel and then visualized under UV light.
To test whether mitochondrial membrane disruption was involved in the apoptotic effects of COH-SR4 and COH-SR9, fluorescent cationic lipophilic dye DiOC6(3) was used and monitored using flow cytometry. HL-60 cells were exposed to various concentrations of COH-SR4 or COH-SR9 for 4 hours. After incubation, cells were rinsed and stained with the cationic fluorescent dye DiOC6(3) and then the overall fluorescence was analyzed by flow cytometry. […] Reduction of the fluorescence intensity of DiOC6(3) is indicative of the cells undergoing mitochondrial depolarization and loss of Δψmt. This effect, which has been commonly observed with other anticancer drugs irrespective of the cell type, generally defines an early but already irreversible stage of apoptosis.
HL-60 (2.5×10^4) cells were seeded into 96-well plates and incubated with a test compound (COH-SR4 or COH-SR9) at various concentrations (0.5˜3 μM) for 48 hours, then caspase-3/7 or caspase-9 activity was measured with the Caspase Glo kit (Promega), respectively. Data are expressed as mean±SE from 3 independent experiments (FIG. 18A), “*” in the figure means p<0.05 when compared to the untreated control.
Treatment of COH-SR compounds also triggered release of cytochrome c (14 kDa) into the cytoplasm and cleavage of full length PARP (116 kDa) into the 89 kDa fragment, all hallmarks of cells undergoing apoptosis (FIG. 18B). HL-60 cells were treated with COH-SR4 or COH-SR9 at various concentrations (0.5 μM˜3 μM) or nothing for 24 hours. Cytochrome c (14 kDa) and cleavage of full length PARP (116 kDa) into the 89 kDa fragment were analyzed in untreated HL-60 cells and HL-60 cells treated with COH-SR4 or COH-SR9 by Western blot. Numbers below each blot represent fold increase in protein expression relative to the control as quantified by densitometry and calculated with reference to β-actin as an internal standard.

[5] = tested on: NCI-60 human tumor cell lines; experiment: NCI-60 DTP Human Tumor Cell Line Drug Screening; format: cell-based; settings: leukemia, NSCLC, colon, CNS, melanoma, ovarian, renal, prostate, breast lines
Text: Moreover, preliminary data from the NCI-60 DTP Human Tumor Cell Line Drug Screening (http://dtp.nci.nih.gov/branches/btb/ivclsp.html) further confirmed the observations on these COH-SR compounds. […] A value of 100 meant no growth inhibition. A value of 20 meant 80% growth inhibition. A value of 0 meant no net growth over the course of the experiment. A value of −40 meant 40% lethality. A value of −100 meant all cells were dead.

Compound | AMPK activation (AMPK) | superoxide production (NBT-positive cells) (HL-60 cells [1]) | surface expression of CD11b and CD14 (HL-60 cells [1]) | morphologic changes (Giemsa-Wright stain), myeloid differentiation (HL-60 cells [1]) | cells in the S phase (HL-60 cells [2]) [%] | viable cells arrested in G0/G1 phase (HL-60 cells [2]) [%] | overall apoptotic cells (HL-60 cells [3]) [%] | DiOC6(3) fluorescence (mitochondrial depolarization) (HL-60 cells [4]) | cytochrome c release and PARP (HL-60 cells [4]) | caspase 3/7 and caspase 9 activity (HL-60 cells [4]) | DNA fragmentation (DNA ladder) (HL-60 cells [4]) | activity in NCI-60 screening [5]
Cc1c(Cl)cc(NC(=O)Nc2cc(Cl)cc(Cl)c2)c(O)c1Cl [COH-SR9, 1-(3,5-dichlorophenyl)-3-(3,5-dichloro-2-hydroxy-4-methyphenyl) urea] | Dose-dependent AMPK activation | Induced Superoxide Production | dose-dependent increase in expression of both CD11 b and CD14 | exhibited cytoplasmic vacuolation, reduced nucleus-to-cytoplasmic ratio, and absence of prominent nucleoli | 13 | 85 | 40 | decreased overall DiOC6(3) fluorescent intensity | release of cytochrome c into the cytoplasm and PARP enzyme activation | higher caspase 3/7 and caspase 9 activity | dose-dependent DNA fragmentation | active against
O=C(Nc1cc(Cl)cc(Cl)c1)Nc1cc(Cl)cc(Cl)c1 [COH-SR4, 1,3-bis(3,5-dichlorophenyl) urea] | highest potency; also recorded: Dose-dependent AMPK activation | Induced Superoxide Production | dose-dependent increase in expression of both CD11 b and CD14 | exhibited cytoplasmic vacuolation, reduced nucleus-to-cytoplasmic ratio, and absence of prominent nucleoli | 10 | 85 | ~60 | decreased overall DiOC6(3) fluorescent intensity | release of cytochrome c into the cytoplasm and PARP enzyme activation | higher caspase 3/7 and caspase 9 activity | dose-dependent DNA fragmentation | active against
